Results on 5 compounds are retold here after US20140056835A1, “COSMETIC COMPOSITION FOR SKIN WHITENING COMPRISING SMALL MOLECULE-PEPTIDE CONJUGATE” (AE KYUNG INDUSTRIAL CO., LTD., priority 2012, published 2014).

For orientation: inhibition means the share of the control response that was lost under treatment.

The test system of one data set is B16F1 melanoma cells. The experiment in a line: Test for inhibitory effect on melanin production. The class given is cell-based. To be noted: sample 50 uM, incubated for 2 days; for inhibition at 50 µM: Mus musculus, B16-F1, 48 h, read-out: Melanin production inhibition rate (%). As to the method: Inhibitory effect on melanin formation was measured using B16F1 melanoma cells. B16F1 melanoma cells were inoculated into a 6-well plate at a density of 3×10^5 (cells/well) with DMEM containing 10% FBS. […] After 2 days, the medium was removed and the cells were washed with PBS (phosphate buffered saline), treated with trypsin, and then retrieved. The retrieved cells were centrifuged and the supernatant was discarded. Intracellular melanin was obtained by treating the cells with 0.2 ml of 1N NaOH+10% DMSO solution. The collected cells were transferred to a 96-well plate and absorbance was measured at 490 nm. The amount of intracellular melanin was estimated using standard curve with synthetic melanin as a standard substance. The amount of protein was quantified via absorbance measurement using a protein assay reagent. For the amount of melanin produced, the amount of melanin for a given protein was estimated.

Another data set addresses T1, Tyrosinase (Agaricus bisporus, UniProt C7FF04).
T1 construct: purchased Sigma; host or cells: natural source: mushrooms
The experiment in a line: Test for inhibitory effect on tyrosinase activity (dopachrome absorbance at 475 nm). It counts as biochemical, mushrooms. To be noted: L-tyrosine substrate, 10 min at 37° C.; for inhibition at 50 µM / inhibition at 100 µM: read-out: Tyrosinase activity inhibition rate (%).

A further data set deals with skin. The following applies: in vivo.

T1 sequence (C7FF04 1-392 limits assumed): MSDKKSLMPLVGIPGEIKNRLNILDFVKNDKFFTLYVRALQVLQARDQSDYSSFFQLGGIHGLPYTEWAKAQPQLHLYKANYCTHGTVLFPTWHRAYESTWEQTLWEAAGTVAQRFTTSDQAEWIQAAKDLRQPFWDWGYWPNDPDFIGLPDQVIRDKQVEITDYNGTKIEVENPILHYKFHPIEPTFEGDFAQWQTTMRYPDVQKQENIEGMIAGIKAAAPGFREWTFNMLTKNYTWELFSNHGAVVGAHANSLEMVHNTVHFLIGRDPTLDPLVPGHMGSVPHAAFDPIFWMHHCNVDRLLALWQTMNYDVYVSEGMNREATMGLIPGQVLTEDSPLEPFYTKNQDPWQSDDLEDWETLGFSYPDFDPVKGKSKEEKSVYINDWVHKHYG

Turning to `OC[C@H]1O[C@@H](Oc2ccc(O)cc2)[C@H](O)[C@@H](O)[C@@H]1O` [Arbutin], the inhibition at 50 µM with B16F1 melanoma cells came to 18%; at Tyrosinase (sample 50 uM), 9.2%. Also, the inhibition at 100 µM at Tyrosinase (sample 100 uM) came out at 14.4%.

As for `O=C(O)/C=C/c1ccc(O)c(O)c1` [Caffeic acid], the inhibition at 50 µM in the data set on B16F1 melanoma cells is 16%. Moreover, the inhibition at 100 µM at Tyrosinase (sample 100 uM) was 21.3%.

`CC(C)C[C@H](NC(=O)/C=C/c1ccc(O)c(O)c1)C(=O)NCC(N)=O` [Caffeic acid-LG-NH2, Caffeic acid-Leu-Gly-NH2]: in the data set on skin, the Degree of irritation entry was “None” and the “Skin irritation” value was “no irritation”. Also, in the data set with B16F1 melanoma cells, the “Melanin production inhibition rate (%)” value was 41%. At Tyrosinase (sample 50 uM), the “Tyrosinase activity inhibition rate (%)” value is listed as 24.2%. Moreover, on Tyrosinase (sample 100 uM), the “Tyrosinase activity inhibition rate (%)” value is 26.8%.

With `O=C(O)/C=C/c1ccc(O)cc1` [Coumaric acid], the inhibition at 50 µM with B16F1 melanoma cells stood at 23%; on Tyrosinase (sample 50 uM), 21.3%. For the same compound, the inhibition at 100 µM at Tyrosinase (sample 100 uM) was found to be 24.6%.

Turning to `CC(C)C[C@H](NC(=O)/C=C/c1ccc(O)cc1)C(=O)NCC(N)=O` [Coumaric acid-LG-NH2, Coumaric acid-Leu-Gly-NH2], in the data set on skin, the Degree of irritation result is recorded as “None” and the “Skin irritation” value is “no irritation”. The “Melanin production inhibition rate (%)” value in the data set on B16F1 melanoma cells was found to be 45.3%. In addition, at Tyrosinase (sample 50 uM), the “Tyrosinase activity inhibition rate (%)” value came to 25.1%. Moreover, the “Tyrosinase activity inhibition rate (%)” value at Tyrosinase (sample 100 uM) is 34.8%.
